Data on one compound can be found in article PMC7226045, “Ensartinib (X-396) Effectively Modulates Pharmacokinetic Resistance Mediated by ABCB1 and ABCG2 Drug Efflux Transporters and CYP3A4 Biotransformation Enzyme” (Cancers, 2020).

The structures appear in SMILES notation.

For orientation: IC50 means the concentration needed to halve the response being measured.

Series [1] deals with CYP3A4 (Homo sapiens, UniProt P08684). Put plainly: Inhibition of CYP3A4 in intact HepG2-CYP3A4 cells (P450-Glo, luciferin-IPA). More on the design: expressed in transfected cells; host or cells: HepG2-CYP3A4. It is filed as cell-based. The settings on record: luciferin-IPA 2 µM, 45 min, normalized to viability, read-out: IC50, inhibition of CYP3A4 in enzyme-overexpressing HepG2 cells.
Experimental: A cell-based method using the P450-Glo CYP3A4 Assay and Screening System with Luciferin-IPA together with the CellTiter-Glo Luminescent Cell Viability Assay was used to measure CYP3A4 inhibition in intact HepG2-CYP3A4 cells [27]. HepG2-CYP3A4 cells were seeded on a transparent 96-well plate at a density of 8.0 × 10^4 cells/well and cultured for 24 h. […] After a 10 min pre-incubation under standard conditions, the CYP3A4 substrate luciferin-IPA was quickly added to all cells other than background samples at a final concentration of 2 µM and the plates were then incubated for 45 min at room temperature. After incubation, the plates were placed on ice and some of the culture media from the cells was transferred to an opaque white 96-well plate and mixed with Luciferin Detection Reagent in a ratio of 1:1 (v/v). The resulting solution was incubated for 20 min at room temperature, then the samples’ luminescence was measured using a microplate reader (Infinite M200 Pro, Tecan, Männedorf, Switzerland) with an integration time of 250 ms. The remaining media was separated from the cells, then 35 µL of pure Opti-MEM was added and the resulting mixture was incubated for 30 min at room temperature. […] Luminescence (which correlates with cell viability) was monitored under conditions identical to those used in the previous step.

Series [2] deals with MDCKII-parent cells. In words: MTT proliferation / drug combination assay, MDCKII-parent. It is filed as cell-based, canine. The protocol:
MTT proliferation assay was performed as described previously.

The subject of series [3] is HL60-parent cells. In words: XTT proliferation / drug combination assay, HL60-parent. It is filed as cell-based, human. Background: Formazan colour is commonly taken as a measure of viable cells.
Experimental: Briefly, HL60-par, HL60-ABCB1, HL60-ABCG2, and HL60-ABCC1 cells were seeded at 2 × 10^4 cells/well in 96-well culture plates. Immediately after seeding, dilutions of the tested drugs or drug combinations were added to the cells. The plates were then incubated under standard conditions (37 °C, 5% CO2) for 48 h, after which XTT solution in PBS (1 mg/mL) and phenazine methosulfate (7.50 µg/mL) were added to the cells and the plates were incubated for another 5 h. Finally, the cells’ absorbance was measured at 450 nm using a microplate reader (Infinite M200, Tecan, Salzburg, Austria). This method was used to assess the effect of ABC transporters on sensitivity to ensartinib and in drug combination assays.
The parent MDCKII and HL60 cells and their ABCB1-, ABCG2-, and ABCC1-overexpressing counterparts were seeded at the densities specified above onto 96-well culture plates and cultured for 24 h. The medium was subsequently replaced with serial dilutions of ensartinib alone or with various concentrations of a model MDR-susceptible cytostatic agent (daunorubicin or mitoxantrone) with or without 10 µM ensartinib. After 48 h incubation, the cells’ viability was determined as described above. In addition to performing IC50-shift analyses, the viability measurements were converted to FA (fraction of cells affected) values and the effects of drug combinations were quantified using the Chou-Talalay combination index (CI) method as implemented in CompuSyn 3.0.1 (ComboSyn Inc., Paramus, NJ, USA). The effects of concomitantly administered drugs were classified as synergistic (CI < 0.9), additive (0.9 < CI < 1.1), or antagonistic (CI > 1.1) based on the computed CI values [57].
The subject of series [4] is MDCKII-ABCB1 cells. In words: MTT proliferation / drug combination assay, MDCKII-ABCB1. The settings on record: MDCKII-ABCB1. How it is done: (§1) MTT proliferation assay was performed as described previously. Cells were seeded on a 96-well culture plate at densities (in units of cells/well) of 1.3 × 10^4 for MDCKII-par, MDCKII-ABCB1, MDCKII-ABCG2, and MDCKII-ABCC1; 1.2 × 10^4 for A431-par, A431-ABCB1, A431-ABCG2 and A431-ABCC1; 1.2 × 10^4 for NCI-H1299; 2.0 × 10^4 for Caco-2; 5.0 × 10^4 for LS174T; and 6.0 × 10^4 for HepG2-CYP3A4 and HepG2-EV. After seeding, the cells were cultured for 24 h, then the media was removed and the cells were treated with serial dilutions of a drug or drug combination for 48 h. Vehicles containing media and 40% DMSO in media served as 100% and 0% viability controls, respectively. Upon completion of the 48 h period, the cells were washed once with 1× PBS, the media was replaced with an MTT solution in Opti-MEM (1 mg/mL), and the cells were incubated under standard conditions for 60 min. MTT solution was carefully removed and the resulting formazan crystals were immediately solubilized in DMSO. The cells were then shaken gently for 10 min, after which absorbance of their lysate was measured at 570 nm and 690 nm using a microplate reader (Infinite M200, Tecan, Salzburg, Austria); background values obtained at 690 nm were subtracted from the measurements obtained at 570 nm. This method was used to assess the effect of ABC transporters on sensitivity to ensartinib, in drug combination assays, and to identify drug concentrations appropriate for use in induction studies.
(§2) Experiments focusing on the modulation of ABC transporter-mediated resistance were performed as described previously. The parent MDCKII and HL60 cells and their ABCB1-, ABCG2-, and ABCC1-overexpressing counterparts were seeded at the densities specified above onto 96-well culture plates and cultured for 24 h. The medium was subsequently replaced with serial dilutions of ensartinib alone or with various concentrations of a model MDR-susceptible cytostatic agent (daunorubicin or mitoxantrone) with or without 10 µM ensartinib. After 48 h incubation, the cells’ viability was determined as described above. In addition to performing IC50-shift analyses, the viability measurements were converted to FA (fraction of cells affected) values and the effects of drug combinations were quantified using the Chou-Talalay combination index (CI) method as implemented in CompuSyn 3.0.1 (ComboSyn Inc., Paramus, NJ, USA). The effects of concomitantly administered drugs were classified as synergistic (CI < 0.9), additive (0.9 < CI < 1.1), or antagonistic (CI > 1.1) based on the computed CI values.

Assay in series [5]: as above
The settings on record: dog, MDCKII-ABCB1 cells. How it is done:
as §1, §2

For series [6], the target named is T1, ABCB1 (Homo sapiens, UniProt P08183).
T1 construct: expressed in transfected cells; host or cells: MDCKII-ABCB1 (from Dr. Alfred Schinkel, The Netherlands Cancer Institute)
Put plainly: hoechst 33342 accumulation assay in MDCKII-ABCB1 cells. It is filed as cell-based. To be noted: read-out: IC50, inhibition of ABCB1 (hoechst 33342 accumulation). The protocol: Cellular accumulation assay with hoechst 33342 and calcein AM was performed as described previously. Briefly, MDCKII-par, MDCKII-ABCB1, MDCKII-ABCG2, and MDCKII-ABCC1 cells were seeded at densities of 5.0 × 10^4, 5.0 × 10^4, 5.5 × 10^4, and 6.0 × 10^4 cells/well, respectively, on a transparent 96-well plate and grown to full confluence for 24 h under standard conditions. The cells were then washed twice with 1 × PBS, after which was added either a dilution of ensartinib in Opti-MEM (1, 5, 10, 25, or 50 µM) or a specific inhibitor to act as a positive control (1 µM LY335979, 1 µM Ko143, or 25 µM MK-571 for ABCB1, ABCG2, or ABCC1, respectively). Cells were pre-incubated for 10 min, then 8 µM hoechst 33342 (a model substrate for ABCB1 and ABCG2) or 2 µM calcein AM (ABCC1 substrate) diluted in Opti-MEM was quickly added to all wells other than those containing blank samples. The intracellular levels of the substrates were then determined at 1 min intervals for 30 min using a microplate reader (Infinite M200 Pro, Tecan, Männedorf, Switzerland). Fluorescence was monitored in bottom mode using excitation/emission wavelengths of 350/465 and 485/535 nm for hoechst 33342 and calcein AM, respectively.

Series [7] deals with T2, CYP2B6 (Homo sapiens, UniProt P20813).
T2 construct: purchased Thermo Fisher Scientific; host or cells: insect microsomal fractions
Put plainly: Vivid CYP screening kit, recombinant CYP2B6. It is filed as biochemical. The settings on record: recombinant enzyme. How it is done:
CYP inhibitory assay was performed as described previously. Experiments were performed with commercial Vivid CYP screening kits containing insect microsomal fractions enriched with a specific human CYP isoform, human CYP reductase, and in some cases, human cytochrome b5. The potential inhibitory activity of ensartinib toward CYP1A2, CYP2B6, CYP2C8, CYP2C9, CYP2C19, CYP2D6, CYP3A4, and CYP3A5 (i.e., all CYP isoforms that drug regulatory authorities recommend for testing of inhibition by new molecular entities) was then examined. Experiments were performed using a kinetic mode in black 96-well plates according to the manufacturer´s instructions. Briefly, 5-point serial dilutions of ensartinib or the model inhibitor recommended by the manufacturer in buffer were transferred into the wells, then a master mix consisting of a CYP isoenzyme with an NADPH regeneration system in buffer was added. After a 10 min pre-incubation, the reaction was initiated by adding a mixture of NADP^+ and the appropriate Vivid substrate, after which fluorescence was measured at 1 min intervals for 60 min using an Infinite M200 Pro microplate reader (Tecan, Männedorf, Switzerland). The enzyme concentration and incubation interval used for data evaluation (15 min) placed the systems within the linear regions of the appropriate reaction velocity curves. […]

T2 sequence (P20813 whole entry): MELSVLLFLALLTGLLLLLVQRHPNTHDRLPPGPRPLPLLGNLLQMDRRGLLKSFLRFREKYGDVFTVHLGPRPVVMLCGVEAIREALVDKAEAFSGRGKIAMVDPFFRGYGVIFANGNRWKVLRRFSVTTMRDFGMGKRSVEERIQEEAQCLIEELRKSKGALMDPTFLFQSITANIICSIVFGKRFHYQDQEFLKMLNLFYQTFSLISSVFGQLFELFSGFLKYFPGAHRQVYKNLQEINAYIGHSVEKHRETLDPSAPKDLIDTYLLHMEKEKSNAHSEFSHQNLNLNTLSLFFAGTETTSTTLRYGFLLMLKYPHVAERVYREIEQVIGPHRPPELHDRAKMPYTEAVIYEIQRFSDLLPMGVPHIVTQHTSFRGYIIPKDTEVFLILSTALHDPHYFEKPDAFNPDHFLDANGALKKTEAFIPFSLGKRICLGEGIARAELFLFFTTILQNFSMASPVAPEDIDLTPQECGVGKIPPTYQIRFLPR
Chain of CYP3A4 (P08684 whole entry): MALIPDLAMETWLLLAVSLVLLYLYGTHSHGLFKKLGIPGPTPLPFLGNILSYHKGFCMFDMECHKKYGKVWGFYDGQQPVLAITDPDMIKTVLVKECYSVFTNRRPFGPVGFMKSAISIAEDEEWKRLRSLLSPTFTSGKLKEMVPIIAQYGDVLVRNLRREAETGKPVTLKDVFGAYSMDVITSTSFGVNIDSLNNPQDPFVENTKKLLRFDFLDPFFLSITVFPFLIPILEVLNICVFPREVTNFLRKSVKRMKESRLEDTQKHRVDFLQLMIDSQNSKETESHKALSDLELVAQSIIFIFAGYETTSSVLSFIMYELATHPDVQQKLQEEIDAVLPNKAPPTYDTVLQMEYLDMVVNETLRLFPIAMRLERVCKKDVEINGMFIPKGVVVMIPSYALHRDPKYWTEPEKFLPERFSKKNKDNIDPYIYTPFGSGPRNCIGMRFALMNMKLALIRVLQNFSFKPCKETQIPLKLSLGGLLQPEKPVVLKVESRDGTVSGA
T1 sequence (P08183 whole entry): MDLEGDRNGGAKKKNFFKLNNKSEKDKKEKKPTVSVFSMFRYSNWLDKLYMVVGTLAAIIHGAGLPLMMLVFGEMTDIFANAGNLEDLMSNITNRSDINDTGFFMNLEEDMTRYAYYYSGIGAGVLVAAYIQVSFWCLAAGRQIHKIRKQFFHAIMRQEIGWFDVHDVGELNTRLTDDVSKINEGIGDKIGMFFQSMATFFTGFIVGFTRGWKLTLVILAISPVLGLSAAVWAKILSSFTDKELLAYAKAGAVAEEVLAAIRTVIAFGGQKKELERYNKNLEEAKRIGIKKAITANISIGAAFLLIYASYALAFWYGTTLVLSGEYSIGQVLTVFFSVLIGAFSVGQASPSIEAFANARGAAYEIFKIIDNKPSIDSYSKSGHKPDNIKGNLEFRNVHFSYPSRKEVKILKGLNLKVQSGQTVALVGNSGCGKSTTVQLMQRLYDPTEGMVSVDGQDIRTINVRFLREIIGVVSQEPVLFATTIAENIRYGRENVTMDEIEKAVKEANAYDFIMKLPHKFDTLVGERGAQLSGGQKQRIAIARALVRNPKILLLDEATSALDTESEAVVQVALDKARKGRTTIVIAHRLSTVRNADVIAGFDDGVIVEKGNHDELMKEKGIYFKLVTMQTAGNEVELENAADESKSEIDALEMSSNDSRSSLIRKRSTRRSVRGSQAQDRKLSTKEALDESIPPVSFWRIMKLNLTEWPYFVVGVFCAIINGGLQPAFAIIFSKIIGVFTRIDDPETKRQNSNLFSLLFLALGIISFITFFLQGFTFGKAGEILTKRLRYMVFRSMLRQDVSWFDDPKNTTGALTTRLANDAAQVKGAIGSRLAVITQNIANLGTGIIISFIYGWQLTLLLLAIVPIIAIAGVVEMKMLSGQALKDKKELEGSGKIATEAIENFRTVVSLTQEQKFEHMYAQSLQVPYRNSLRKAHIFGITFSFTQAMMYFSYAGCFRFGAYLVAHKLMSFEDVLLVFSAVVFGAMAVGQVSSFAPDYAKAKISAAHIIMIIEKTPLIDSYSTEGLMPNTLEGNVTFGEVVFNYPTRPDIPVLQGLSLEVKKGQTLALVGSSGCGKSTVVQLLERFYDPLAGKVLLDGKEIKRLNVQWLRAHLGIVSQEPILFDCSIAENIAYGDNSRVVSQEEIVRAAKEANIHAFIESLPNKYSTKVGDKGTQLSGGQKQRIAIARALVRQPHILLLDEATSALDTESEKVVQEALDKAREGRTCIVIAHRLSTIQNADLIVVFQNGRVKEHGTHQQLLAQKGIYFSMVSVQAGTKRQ

On to `C[C@@H]1CN(C(=O)c2ccc(NC(=O)c3cc(O[C@H](C)c4c(Cl)ccc(F)c4Cl)c(N)nn3)cc2)C[C@H](C)N1` [ensartinib, Ensartinib], for which the half-maximal inhibitory concentration (IC50) is 23.5 µM in series [1]; 21.8 µM in series [2] (Canis lupus familiaris, MDCKII-parent, 48 h, MTT, read-out: IC50, sensitivity to ensartinib); 31.9 µM in series [3] (Homo sapiens, HL60-parent, 48 h, XTT, read-out: IC50, sensitivity to ensartinib); 3.69 µM in series [6]; greater than 50 µM in series [7] (15 min incubation, absolute IC50, read-out: CYP2B6 inhibition IC50). The “combination effect (Chou-Talalay combination index)” value in series [2] (MDCKII parental, 10 µM ensartinib with daunorubicin or mitoxantrone, whole FA range) is on record as “antagonistic or additive”; in series [3] (HL60 parental, 10 µM ensartinib with daunorubicin or mitoxantrone, whole FA range), “antagonistic or additive”; in series [4] (10 µM ensartinib with daunorubicin), “synergistic (synergistic (CI < 0.9))”. For the same compound, in series [4] (daunorubicin, IC50 single drug / IC50 combined with 10 µM ensartinib), the “RR (reversal ratio)” value came to 11.2. In addition, the IC50 at 48 h in series [5] worked out at 23.9 µM. Also, the “inhibitory effect on CYP2B6 (in words)” value in series [7] is on record as “no appreciable inhibitory effect”.
